According to patent US10034886B2, “GLP-1 receptor modulators” (Celgene International II SÀRL, priority 2014, dated 2018):
Like-named read-outs stand apart in the source and are kept apart here.

Biological target: T1, GLP-1R (Homo sapiens, UniProt P43220)
T1 construct: host or cells: GLP-1R CRE-bla CHO-K1 cells
Assay: EC20 GLP-1(9-36) PAM cAMP assay: dose response of compound in the presence of fixed concentration of GLP-1(9-36)
Format: cell-based
Conditions: GLP-1R CRE-bla CHO-K1 cells, read-out: EC20 GLP-1(9-36) PAM EC50
Procedure, shortened: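 GLP-1R CRE-bla CHO-K1 cells treated 30 min at 37 °C with 12-point compound dose response plus fixed EC20 GLP-1(9-36), with IBMX, in HBSS/HEPES/0.1% BSA pH 7.4. Total cAMP measured by luminescent detection against standard curve; EC50 and Emax from non-linear regression.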

[1] = dose response of compound in presence of fixed concentration of GLP-1(9-36)
[2] = compound dose response with fixed concentration of GLP-1(9-36)

T1 sequence (P43220 24-463): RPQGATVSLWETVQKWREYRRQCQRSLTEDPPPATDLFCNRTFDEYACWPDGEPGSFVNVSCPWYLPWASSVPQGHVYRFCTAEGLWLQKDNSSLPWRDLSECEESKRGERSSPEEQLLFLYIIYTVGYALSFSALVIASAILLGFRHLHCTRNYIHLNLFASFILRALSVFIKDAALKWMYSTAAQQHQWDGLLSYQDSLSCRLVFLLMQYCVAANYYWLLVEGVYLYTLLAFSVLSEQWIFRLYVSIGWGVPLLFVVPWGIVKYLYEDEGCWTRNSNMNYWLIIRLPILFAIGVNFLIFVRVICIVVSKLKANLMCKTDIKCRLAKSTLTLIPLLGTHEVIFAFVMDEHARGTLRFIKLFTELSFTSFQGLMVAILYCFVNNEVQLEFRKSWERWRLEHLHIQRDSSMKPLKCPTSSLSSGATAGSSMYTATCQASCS
T1 sequence (P01275 100-127 partner limits assumed): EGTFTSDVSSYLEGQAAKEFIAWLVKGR

SMILES | EC50 [1] | EC50 [2]
CCCCCCCOc1ccc(-c2cnc(-c3ccc(C[C@H](NC(=O)c4ccc(C(C)(C)C)s4)C(=O)N4CC[C@H](C(=O)O)C4)cc3)nc2)nc1 [Compound 1065] | < 800 nM | 
CCCCCCCOc1ccc(-c2cnc(-c3ccc(C[C@H](NC(=O)c4ccc(C(C)(C)C)s4)C(=O)N[C@@H](Cc4ccc(O)c(O)c4)C(=O)O)cc3)nc2)cc1 [Compound 601] | 800 to 2500 nM | 
CC(C)[C@H]1CC[C@@H](c2ccc(-c3cnc(-c4ccc(C[C@H](NC(=O)c5ccc(C(C)(C)C)s5)C(=O)N5CC(C(=O)O)C5)cc4)nc3)cc2)CC1 [Compound 1179] | < 800 nM | 
CCCCCCCOc1ccc(-c2cnc(-c3ccc(C[C@H](NC(=O)c4ccc(C(C)(C)C)s4)C(=O)NS(N)(=O)=O)cc3)nc2)cc1 [Compound 421] | 800 to 2500 nM | 
CC(C)(C)c1ccc(C(=O)N[C@@H](Cc2ccc(-c3ncc(-c4ccc([C@H]5CC[C@H](C(C)(C)C)CC5)cc4)cn3)cc2)C(=O)N2CC(C(=O)O)C2)s1 [Compound 1181] | 800 to 2500 nM | 
CCCCCCCOc1ccc(-c2cnc(-c3ccc(C[C@H](NC(=O)c4ccc(CCC)s4)C(=O)NC(C(=O)O)C(O)c4ccccc4)cc3)nc2)cc1 (some centres unmarked) [Compound 959] | 800 to 2500 nM | 
CCCCc1ccc(/C=C/c2cnc(-c3ccc(C[C@H](NC(=O)c4ccc(C(C)(C)C)s4)C(=O)N[C@H](C)C(=O)O)cc3)nc2)cc1 [Compound 1262] |  | 800 to 2500 nM
CCCCCCCOc1ccc(-c2cnc(-c3ccc(C[C@H](NC(=O)c4ccc(C(C)(C)C)s4)C(=O)N[C@@H](CC(=O)O)C(=O)N(C)CCN(C)C)cc3)nc2)cc1 [Compound 531] | 800 to 2500 nM | 
CCCCCCCOc1ccc(-c2cnc(-c3ccc(C[C@H](NC(=O)c4ccc(C(C)(C)C)s4)C(=O)NCCCN4CCOCC4)cc3)nc2)cc1 [Compound 964] | 2500 to 5000 nM | 
C[C@@H](NC(=O)[C@H](Cc1ccc(-c2ncc(-c3ccc(C(F)(F)F)cc3)cn2)cc1)NC(=O)c1ccc(C(C)(C)C)cc1)C(=O)O [Compound 728] | 800 to 2500 nM | 
CCC[C@H]1CC[C@H](C2CCN(c3cnc(-c4ccc(C[C@H](NC(=O)c5ccc(C(C)(C)C)s5)C(=O)N[C@@H](CCCNC(=N)N)C(=O)O)cc4)nc3)CC2)CC1 [Compound 1465] |  | < 800 nM
CCCCCCCOc1ccc2nc(-c3ccc(C[C@H](NC(=O)c4ccc(C(C)(C)C)cc4)C(=O)N4CC[C@H](C(=O)O)C4)cc3)ccc2c1 [Compound 807] | 5000 to 10000 nM | 
CC(C)(C)c1ccc(C(=O)N[C@@H](Cc2ccc(-c3ncc(-c4ccc([C@H]5CC[C@@H](C)CC5)cc4)cn3)cc2)C(=O)O)s1 [Compound 1357] |  | 2500 to 5000 nM
CCCCCCCOc1ccc(-c2cnc(-c3ccc(C[C@H](NC(=O)c4ccc(C(C)(C)C)s4)C(=O)NS(=O)(=O)CC(=O)O)cc3)nc2)cc1 [Compound 434] | 800 to 2500 nM | 
CCCCCCCOc1ccc(-c2cnc(-c3ccc(C[C@H](NC(=O)c4ccc(CCCC)cc4)C(=O)N4CCC[C@H]4C(=O)O)cc3)nc2)cc1 [Compound 1075] | 800 to 2500 nM | 
CC(C)CCCOc1ccc(-c2cnc(-c3ccc(C[C@H](NC(=O)c4ccc(C(C)C)cc4)C(=O)N4CC(C(=O)O)C4)cc3)nc2)cc1 [Compound 1227] |  | 800 to 2500 nM
CCCCCCCCOc1ccc(-c2cnc(-c3ccc(C[C@H](NC(=O)c4ccc(C(C)(C)C)cc4)C(=O)N[C@H](C)C(=O)O)cc3)nc2)cc1 [Compound 723] | 800 to 2500 nM | 
CCC[C@H]1CC[C@H](C2CCN(c3cnc(-c4ccc(CC(NC(=O)c5ccc(C(C)(C)C)s5)C(=O)NS(=O)(=O)C(F)(F)F)cc4)nc3)CC2)CC1 (some centres unmarked) [Compound 1549] |  | < 800 nM
CC(C)CCCOc1ccc(-c2cnc(-c3ccc(C[C@H](NC(=O)c4ccn(C(C)(C)C)c4)C(=O)N4CC(C(=O)O)C4)cc3)nc2)cc1 [Compound 1242] |  | 800 to 2500 nM

SMILES | EC50 [1] | EC50 [2]
CCCCCCCOc1ccc(-c2cnc(-c3ccc(C[C@H](NC(=O)c4ccc(C(C)(C)C)s4)C(=O)NC(CCCC(=O)O)C(=O)O)cc3)nc2)cc1 (some centres unmarked) [Compound 633] | 800 to 2500 nM | 
C[C@@H](NC(=O)[C@H](Cc1ccc(-c2ncc(/C=C/CCCCc3ccccc3)cn2)cc1)NC(=O)c1ccc(C(C)(C)C)s1)C(=O)O [Compound 1253] |  | < 800 nM
C[C@@H](NC(=O)[C@H](Cc1ccc(-c2ncc(-c3cc4ccccc4cc3O)cn2)cc1)NC(=O)c1ccc(C(C)(C)C)s1)C(=O)O [Compound 1008] | 5000 to 10000 nM | 
CC(C)(C)COc1ccc(-c2cnc(-c3ccc(C[C@H](NC(=O)c4ccc(C(C)(C)C)cc4)C(=O)NCCC(=O)O)cc3)nc2)cc1 [Compound 680] | 5000 to 10000 nM | 
C[C@@H](NC(=O)[C@H](Cc1ccc(-c2ncc(-c3ccc(C(C)(C)C#N)cc3F)cn2)cc1)NC(=O)c1ccc(C(C)(C)C)s1)C(=O)O [Compound 1018] | 5000 to 10000 nM | 
CCCCCCCOc1ccc(-c2cnc(-c3ccc(C[C@H](NC(=O)c4ccc(C(C)(C)C)cc4)C(=O)N[C@H](CCCNC(=O)OCc4ccccc4)C(=O)O)cc3)nc2)cc1 [Compound 575] | 2500 to 5000 nM | 
CC(C)(C)c1ccc(C(=O)N[C@@H](Cc2ccc(-c3ncc(-c4ccc([C@H]5CC[C@H](C)CC5)cc4)cn3)cc2)C(=O)O)s1 [Compound 1358] |  | 2500 to 5000 nM
CCCCCCCOc1ccc(-c2cnc(-c3ccc(C[C@H](NC(=O)c4ccc(C(C)(C)C)cc4)C(=O)N4CC=CC4C(=O)O)cc3)nc2)cc1 (some centres unmarked) [Compound 563] | < 800 nM | 
CCCCCCCOc1ccc(-c2cnc(-c3ccc(C[C@H](NC(=O)c4ccc(OCC(C)C)cc4)C(=O)N[C@H](C)C(=O)O)cc3)nc2)cc1 [Compound 829] | 5000 to 10000 nM | 
CCCCCCCOc1ccc(-c2cnc(-c3ccc(C[C@H](NC(=O)c4ccc(C(C)(C)C)cc4)C(=O)NC(CCCC(=O)O)C(=O)O)cc3)nc2)cc1 (some centres unmarked) [Compound 573] | 800 to 2500 nM | 
CC[C@H]1CC[C@H](c2ccc(-c3cnc(-c4ccc(C[C@H](NC(=O)c5cnn(C(C)(C)C)c5)C(=O)N5CC(C(=O)O)C5)cc4)nc3)cc2)CC1 [Compound 1165] | < 800 nM | 
CCCCCCCOc1ccc(-c2cnc(-c3ccc(C[C@H](NC(=O)c4ccc(C(C)(C)C)s4)C(=O)NCCCN4CCN(C)CC4)cc3)nc2)cc1 [Compound 961] | 2500 to 5000 nM | 
CCCCCCCOc1ccc(-c2cnc(-c3ccc(C[C@H](NC(=O)c4ccc(C(C)(C)C)cc4)C(=O)N[C@@H](Cc4ccc(O)cc4)C(=O)O)cc3)nc2)cc1 [Compound 451] | < 800 nM | 
CCC[C@H]1CC[C@H](C2CCN(c3cnc(-c4ccc(C[C@H](NC(=O)c5ccc(OC(C)(C)C)cc5)C(=O)N5CC(C(=O)O)C5)cc4)nc3)CC2)CC1 [Compound 1524] |  | < 800 nM
CCCCCCCCOc1ccc(-c2cnc(-c3ccc(C[C@H](NC(=O)c4ccc(C(C)(C)C)s4)C(=O)N4CC(C(=O)O)C4)cc3)nc2)cc1 [Compound 778] | < 800 nM | 
CCC[C@H]1CC[C@H](C2CCN(c3cnc(-c4ccc(C[C@H](NC(=O)c5ccc(C6CC6)s5)C(=O)N5CC(C(=O)O)C5)cc4)nc3)CC2)CC1 [Compound 1515] |  | < 800 nM
CCCCCCCOc1ccc(-c2cnc(-c3ccc(C[C@H](NC(=O)c4ccc(C(C)(C)C)s4)C(=O)NC(C(=O)O)C(O)c4cncnc4)cc3)nc2)cc1 (some centres unmarked) [Compound 904] | 2500 to 5000 nM | 
Cc1cccc(-c2noc(-c3cnc(-c4ccc(C[C@H](NC(=O)c5ccc(C(C)(C)C)cc5)C(=O)NCCC(=O)O)cc4)nc3)n2)c1 [Compound 750] | 2500 to 5000 nM | 
CCC[C@H]1CC[C@H](C2CCN(c3cnc(-c4ccc(C[C@H](NC(=O)c5ccc(C6(C)CC6)cc5)C(=O)N5CC(C(=O)O)C5)cc4)nc3)CC2)CC1 [Compound 1519] |  | < 800 nM
